Reference: publication PMC8138313, “Identification, Selection and Immune Assessment of Liver Stage CD8 T Cell Epitopes From Plasmodium falciparum” (Frontiers in Immunology, 2021)
Where a SMILES comes first, the peptide text is derived from it.

Experiments:
Test in all cases: HLA class I binding assay (cell-free competition, fluorescence polarization)
[1] = molecular target: HLA A*0101 (Homo sapiens, UniProt P04439, A114D/A174V/A182V/D101N/D185E/E176A/E190D/L180R/Q94H/R68K/S129P/T187R/V100A/V91M/W191G)
[2] = molecular target: HLA A*0301 (Homo sapiens, UniProt P04439)
[3] = molecular target: HLA A*0201 (Homo sapiens, UniProt P04439, D140Y/D185E/D98H/E176V/E277Q/G131W/G231S/I119V/I121R/I166T/I218V/L300P/L318F/N151K/N90K/P208A/P217A/Q86G/Q94H/R138H/R169H/T345S)

SMILES | IC50 [1] [µM] | IC50 [2] [µM] | IC50 [3] [µM]
CC(C)C[C@H](NC(=O)[C@H](C)NC(=O)[C@H](CO)NC(=O)[C@@H](NC(=O)[C@H](CCCCN)NC(=O)[C@H](CC(=O)O)NC(=O)[C@H](CCCNC(=N)N)NC(=O)[C@@H](N)CS)[C@@H](C)O)C(=O)N[C@@H](Cc1ccc(O)cc1)C(=O)O (H-CRDKTSALY-OH; N-terminus assumed) | > 1000 |  | 
CC(C)C[C@H](NC(=O)[C@H](CC(=O)O)NC(=O)[C@H](CC(=O)O)NC(=O)[C@H](CO)NC(=O)[C@@H](N)CC(=O)O)C(=O)N[C@@H](CCCCN)C(=O)N[C@@H](CCC(=O)O)C(=O)N[C@@H](CO)C(=O)N[C@@H](Cc1ccc(O)cc1)C(=O)O (H-DSDDLKESY-OH) | 2.6 |  | 
CC(C)[C@H](NC(=O)[C@H](CCC(=O)O)NC(=O)[C@H](Cc1ccccc1)NC(=O)[C@@H](NC(=O)[C@@H](N)CC(=O)O)[C@@H](C)O)C(=O)N[C@@H](Cc1ccc(O)cc1)C(=O)N[C@@H](CO)C(=O)N[C@@H](CCC(=O)O)C(=O)N[C@@H](Cc1ccc(O)cc1)C(=O)O (H-DTFEVYSEY-OH; N-terminus assumed) | > 1000 | > 1000 | 
CC[C@H](C)[C@H](NC(=O)[C@@H](N)Cc1ccccc1)C(=O)N[C@@H](CC(=O)O)C(=O)N1CCC[C@H]1C(=O)N[C@@H](CCC(N)=O)C(=O)N[C@H](C(=O)N[C@@H](CCC(=O)O)C(=O)N[C@@H](CCSC)C(=O)N[C@@H](Cc1ccccc1)C(=O)N[C@@H](CCCCN)C(=O)O)[C@@H](C)O (H-FIDPQTEMFK-OH) | 46.6 | 8.1 | 
CC(C)[C@H](NC(=O)[C@H](CC(N)=O)NC(=O)[C@@H](NC(=O)[C@@H](N)Cc1ccccc1)[C@@H](C)O)C(=O)N[C@@H](CC(N)=O)C(=O)N[C@@H](CCC(N)=O)C(=O)N[C@@H](Cc1ccccc1)C(=O)N[C@@H](Cc1ccccc1)C(=O)N[C@@H](CCCCN)C(=O)O (H-FTNVNQFFK-OH) | > 1000 | 0.921 | 
NCCCC[C@H](NC(=O)[C@H](CO)NC(=O)CN)C(=O)N[C@@H](CC(N)=O)C(=O)N[C@@H](CC(=O)O)C(=O)N[C@@H](Cc1ccccc1)C(=O)N[C@@H](CCC(N)=O)C(=O)N[C@@H](CCC(N)=O)C(=O)N[C@@H](CCC(N)=O)C(=O)N[C@@H](Cc1ccc(O)cc1)C(=O)O (H-GSKNDFQQQY-OH; N-terminus assumed) | > 1000 |  | 
CC(C)C[C@H](NC(=O)CNC(=O)[C@@H]1CCCN1C(=O)[C@H](Cc1ccccc1)NC(=O)[C@@H](NC(=O)[C@H](CO)NC(=O)[C@@H](NC(=O)[C@@H](N)Cc1c[nH]cn1)[C@@H](C)O)C(C)C)C(=O)N[C@@H](Cc1ccc(O)cc1)C(=O)O (H-HTSVFPGLY-OH) | 5.65 |  | 
CC[C@H](C)[C@H](N)C(=O)N[C@H](C(=O)N[C@@H](CC(N)=O)C(=O)N[C@@H](CCCCN)C(=O)N[C@@H](CC(N)=O)C(=O)N[C@@H](CCCCN)C(=O)N[C@H](C(=O)N[C@H](C(=O)N[C@H](C(=O)N[C@@H](Cc1ccc(O)cc1)C(=O)O)[C@@H](C)CC)[C@@H](C)O)C(C)C)[C@@H](C)O (H-ITNKNKVTIY-OH) | > 1000 | 8.72 | 
CC(C)[C@H](NC(=O)[C@H](CCC(=O)O)NC(=O)[C@H](Cc1ccccc1)NC(=O)[C@@H](NC(=O)[C@H](CC(=O)O)NC(=O)[C@H](CC(=O)O)NC(=O)[C@H](CCC(=O)O)NC(=O)[C@@H](N)CCCCN)[C@@H](C)O)C(=O)N[C@@H](Cc1ccc(O)cc1)C(=O)O (H-KEDDTFEVY-OH; N-terminus assumed) | > 1000 |  | 
CC(C)C[C@H](NC(=O)[C@H](CC(=O)O)NC(=O)[C@H](CC(C)C)NC(=O)[C@H](CO)NC(=O)[C@@H]1CCCN1C(=O)[C@H](CCCCN)NC(=O)[C@H](CC(N)=O)NC(=O)[C@H](CC(C)C)NC(=O)[C@H](CC(C)C)NC(=O)[C@@H](N)CCCCN)C(=O)O (H-KLLNKPSLDL-OH) |  | 2.36 | 4.26
CC[C@H](C)[C@H](NC(=O)[C@@H](N)CC(C)C)C(=O)N[C@@H](CO)C(=O)N[C@@H](CCCNC(=N)N)C(=O)N[C@@H](CC(C)C)C(=O)N[C@H](C(=O)N[C@@H](CC(C)C)C(=O)N[C@@H](CCCCN)C(=O)N[C@@H](Cc1ccc(O)cc1)C(=O)O)[C@@H](C)O (H-LISRLTLKY-OH) | 11.5 |  | 
CC[C@H](C)[C@H](NC(=O)[C@H](CC(N)=O)NC(=O)[C@H](CCC(=O)O)NC(=O)[C@@H](NC(=O)[C@H](CC(N)=O)NC(=O)[C@H](CO)NC(=O)[C@H](CO)NC(=O)[C@@H](N)CC(C)C)[C@@H](C)CC)C(=O)N[C@@H](Cc1ccc(O)cc1)C(=O)O (H-LSSNIENIY-OH) | 29.6 |  | 
CC[C@H](C)[C@H](NC(=O)[C@H](CC(N)=O)NC(=O)[C@H](CCC(N)=O)NC(=O)[C@H](CCC(N)=O)NC(=O)[C@H](Cc1ccc(O)cc1)NC(=O)[C@H](CCSC)NC(=O)[C@@H](N)CC(N)=O)C(=O)N1CCC[C@H]1C(=O)N[C@@H](CC(C)C)C(=O)O (H-NMYQQNIPL-OH) |  |  | 331
CSCC[C@H](NC(=O)[C@H](CC(N)=O)NC(=O)[C@H](CC(N)=O)NC(=O)[C@H](CCCNC(=N)N)NC(=O)[C@H](Cc1ccccc1)NC(=O)[C@H](CC(N)=O)NC(=O)[C@H](CC(N)=O)NC(=O)[C@@H](N)CC(N)=O)C(=O)N[C@@H](Cc1ccc(O)cc1)C(=O)O (H-NNNFRNNMY-OH; N-terminus assumed) | > 1000 |  | 
CC[C@H](C)[C@H](NC(=O)[C@H](CC(C)C)NC(=O)[C@H](CC(=O)O)NC(=O)[C@H](CC(C)C)NC(=O)[C@H](CCCCN)NC(=O)[C@H](CC(=O)O)NC(=O)[C@H](CO)NC(=O)[C@@H](N)CC(N)=O)C(=O)N[C@@H](Cc1ccc(O)cc1)C(=O)O (H-NSDKLDLIY-OH) | 0.875 |  | 
CC(C)[C@H](NC(=O)[C@H](CC(N)=O)NC(=O)[C@@H]1CCCN1C(=O)[C@H](CO)NC(=O)[C@@H](N)CC(N)=O)C(=O)N[C@@H](CC(N)=O)C(=O)N[C@@H](CCCCN)C(=O)N[C@@H](CCCNC(=N)N)C(=O)N[C@@H](Cc1ccc(O)cc1)C(=O)O (H-NSPNVNKRY-OH; N-terminus assumed) | > 1000 |  | 
CC(C)[C@H](NC(=O)[C@@H](NC(=O)[C@@H](N)CC(N)=O)[C@@H](C)O)C(=O)N[C@@H](CCCCN)C(=O)N[C@@H](CS)C(=O)N1CCC[C@H]1C(=O)N[C@@H](CC(N)=O)C(=O)N[C@@H](CC(=O)O)C(=O)N[C@@H](Cc1ccc(O)cc1)C(=O)O (H-NTVKCPNDY-OH) | 282 |  | 
CC[C@H](C)[C@H](NC(=O)[C@@H](N)CO)C(=O)N[C@@H](CO)C(=O)N[C@@H](CC(=O)O)C(=O)N[C@@H](Cc1ccc(O)cc1)C(=O)N[C@H](C(=O)N[C@@H](CCCCN)C(=O)N[C@@H](CO)C(=O)N[C@@H](CC(C)C)C(=O)O)[C@@H](C)O (H-SISDYTKSL-OH) |  |  | 352
CC[C@H](C)[C@H](NC(=O)[C@H](CC(N)=O)NC(=O)[C@@H](NC(=O)[C@H](CCSC)NC(=O)[C@@H](N)CO)[C@@H](C)O)C(=O)N1CCC[C@H]1C(=O)N[C@@H](CCSC)C(=O)N[C@@H](CC(N)=O)C(=O)N[C@H](C(=O)O)C(C)C (H-SMTNIPMNV-OH) |  |  | 0.244
C[C@H](NC(=O)[C@H](CO)NC(=O)[C@@H](N)CO)C(=O)N[C@@H](CC(N)=O)C(=O)N[C@@H](CC(=O)O)C(=O)N[C@@H](CCC(=O)O)C(=O)N[C@@H](CCC(N)=O)C(=O)N[C@@H](CO)C(=O)N[C@@H](Cc1ccc(O)cc1)C(=O)O (H-SSANDEQSY-OH) | 65 |  | 
CC[C@H](C)[C@H](NC(=O)[C@H](CC(=O)O)NC(=O)[C@@H](NC(=O)[C@@H](N)CO)[C@@H](C)O)C(=O)N[C@H](C(=O)N[C@@H](Cc1ccccc1)C(=O)N[C@@H](CC(C)C)C(=O)N[C@H](C(=O)N[C@@H](CCSC)C(=O)N[C@@H](CCCCN)C(=O)O)[C@@H](C)O)[C@@H](C)CC (H-STDIIFLTMK-OH) | > 1000 | 8.78 | 
CSCC[C@H](NC(=O)[C@H](CC(N)=O)NC(=O)[C@H](CCC(N)=O)NC(=O)[C@H](CC(N)=O)NC(=O)[C@H](C)NC(=O)[C@H](CCSC)NC(=O)[C@@H](N)[C@@H](C)O)C(=O)N[C@@H](CC(N)=O)C(=O)N[C@@H](Cc1ccc(O)cc1)C(=O)O (H-TMANQNMNY-OH) | 2.02 | 0.943 | 
C[C@@H](O)[C@H](N)C(=O)N[C@@H](CO)C(=O)N[C@@H](CCCCN)C(=O)N[C@@H](CCC(N)=O)C(=O)NCC(=O)N[C@@H](CO)C(=O)N[C@@H](CO)C(=O)N[C@@H](CC(N)=O)C(=O)N[C@@H](CCCCN)C(=O)N[C@@H](Cc1ccc(O)cc1)C(=O)O (H-TSKQGSSNKY-OH; N-terminus assumed) | > 1000 |  | 
CC(C)[C@H](NC(=O)[C@H](CO)NC(=O)[C@H](CCC(=O)O)NC(=O)[C@H](Cc1ccccc1)NC(=O)[C@H](Cc1ccccc1)NC(=O)[C@@H](NC(=O)[C@@H](N)[C@@H](C)O)[C@@H](C)O)C(=O)N[C@@H](CO)C(=O)N[C@@H](Cc1ccc(O)cc1)C(=O)O (H-TTFFESVSY-OH) | 338 | 658 | 
CC[C@H](C)[C@H](NC(=O)CNC(=O)[C@H](Cc1ccc(O)cc1)NC(=O)[C@H](Cc1c[nH]cn1)NC(=O)[C@@H](NC(=O)[C@@H](N)C(C)C)[C@@H](C)CC)C(=O)N[C@@H](CC(N)=O)C(=O)N1CCC[C@H]1C(=O)N[C@H](C(=O)O)C(C)C (H-VIHYGINPV-OH) |  |  | 1.7
CC[C@H](C)[C@H](NC(=O)[C@H](CC(=O)O)NC(=O)[C@H](CC(N)=O)NC(=O)[C@H](CC(N)=O)NC(=O)[C@H](CC(C)C)NC(=O)[C@@H](N)Cc1c[nH]c2ccccc12)C(=O)N[C@@H](Cc1ccc(O)cc1)C(=O)N[C@@H](CC(N)=O)C(=O)N[C@H](C(=O)O)C(C)C (H-WLNNDIYNV-OH) |  |  | 0.16
CC[C@H](C)[C@H](NC(=O)[C@@H](NC(=O)[C@@H](NC(=O)[C@H](CCCCN)NC(=O)[C@H](CC(N)=O)NC(=O)[C@H](CCCCN)NC(=O)[C@H](CC(N)=O)NC(=O)[C@@H](NC(=O)[C@@H](NC(=O)[C@@H](N)Cc1ccc(O)cc1)[C@@H](C)CC)[C@@H](C)O)C(C)C)[C@@H](C)O)C(=O)O (H-YITNKNKVTI-OH; N-terminus assumed) |  |  | > 1000
